Earlier results in patent US20080064913A1 (priority 2005, published 2008).

Tested on: rat
Conditions: in vivo

NN [hydrazine]
LD50 (rat): 60 mg/kg
